Source: patent publication US20260258050A1, “IMMUNOMODULATOR” (HITGEN INC., priority 2023, published 2026)

Tests used:
Human IL-17A [1] = target: T1, Human IL-17A (Homo sapiens, UniProt Q16552); assay: IL-17A enzyme-linked immunosorbent assay (competitive ELISA, IL-17A/IL-17Ra receptor-ligand binding); parameters: purchased Sino Biological Inc. 12047-H07B; conditions: human IL-17A coated plate, human IL-17Ra, read-out: IC50, inhibitory activity of compounds on human IL-17A
T1 sequence (Q16552 20-155 limits assumed): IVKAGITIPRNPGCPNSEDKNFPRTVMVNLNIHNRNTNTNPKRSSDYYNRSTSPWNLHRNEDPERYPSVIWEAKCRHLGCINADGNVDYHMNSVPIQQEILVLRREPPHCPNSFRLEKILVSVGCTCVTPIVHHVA
Description: Experimental Example 1 IL-17A Enzyme-Linked Immunosorbent Assay (ELISA)
The inhibitory effects of human IL-17A inhibitors on receptor-ligand binding were quantitatively determined by a competitive enzyme-linked immunosorbent assay (ELISA). The ELISA was performed through the following steps.
Human IL-17A (Sino Biological Inc., Cat #12047-H07B) was diluted with coating buffer (50 mM phosphate-buffered saline (PBS), pH 7.4) to give an IL-17A concentration of 0.2 μg/ml. 100 μL of the resulting solution was added to each well of a 96-well plate, and the plate was incubated at 37° C. for 30 min. In a blank group, 100 100 μL of the coating buffer was added instead of the IL-17A solution.
The plate was washed four times with 10 mM phosphate-buffered saline containing 0.05% Tween-20 (PBST, pH 7.4). 200 μL of PBST was used per well for each wash. After the final wash, the plate was tapped dry on absorbent paper.
Fresh 5% (w/v) skim milk solution was prepared before the experiment. For example, 5 g of skim milk powder (Bio-Rad, 170-6404) was completely dissolved in 100 mL of 10 mM PBST. 200 μL of the 5% (w/v) skim milk solution was added to each well, and the plate was incubated on a shaker at 25° C. for 30 min.
(S4) Preparation of 100× to-be-Tested Compound Solutions
During step (S3), the to-be-tested compound solutions were prepared, respectively. Each powdered compound was dissolved in dimethyl sulfoxide (DMSO) to reach a storage concentration of 10 mM. The to-be-tested compound solutions were then serially diluted four-fold with DMSO to obtain nine storage concentrations ranging from […].
(S6) Pre-incubation of IL-17A with to-be-tested compound solutions
89 μL of PBST and 1 μL of each of the to-be-tested compound solutions were added to each well and mixed. The plate was pre-incubated at 25° C. for 10 min. In the blank group and the control group, 1 μL of DMSO was added instead of the to-be-tested compound solutions.
(S7) Incubation with Human Interleukin-17 Receptor a (IL-17Ra)
10 μL of 16 nM human IL-17Ra (Sino Biological Inc., Cat #10895-H03H) was added, followed by incubation on a shaker at 25° C. for 30 min. The receptor solution was prepared in 10 mM PBST.
(S9) Incubation with Horseradish Peroxidase-Conjugated Antibody
100 μL of mouse anti-Fc tag horseradish peroxidase (HRP)-conjugated antibody (Sino Biological Inc., Cat #10702-MM01T-H) was added to each well. The plate was incubated on a shaker at 25° C. for 30 min. The antibody was diluted with 5% (w/v) skim milk solution at 1:5,000 (v/v).
100 μL of 3,3′,5,5′-tetramethylbenzidine (TMB) substrate solution (BD, Cat #555214) was added to each well. Substrate A and substrate B were freshly mixed at a volume ratio of 1:1 before use. The plate was incubated in the dark at 25° C. for 5-15 min.
(S12) Termination and Detection
The color reaction was terminated by addition of 2.5 M hydrochloric acid (HCl). Absorbance was measured at 450 nm using a BMG PHERStar microplate reader.
(S13) Calculation of Half-Maximal Inhibitory Concentration (IC50)
The relative percent residual activity at each compound concentration was calculated according to Equation 1. The IC50 value of each test compound was then calculated in GraphPad 6 using the equation for log(inhibitor) versus normalized response with variable slope, as shown in Equation 2.
relative percent residual activity (%)=[(absorbance of sample−absorbance of blank group)/(absorbance of control group−absorbance of blank group)]%. Equation 1: […]
The compounds prepared in the above examples were tested for IL-17A inhibitory activity according to the above method.

Human IL-17A [2] = target: T1, Human IL-17A; assay: Inhibition of human IL-17A protein-induced GROα/CXCL1 production in HT-29 cells; assay type: cell-based; parameters: purchased R&D 317-ILB; host or cells: added exogenously to HT-29 cells; conditions: 30 ng/mL human IL-17A protein, 48 h, GROα in supernatant by ELISA kit, read-out: Inhibitory IC50 of compounds on HT-29 cell GROα/CXCL1
Description: Experiment Example 3 Inhibition of Human IL-17A Protein-Induced GROα/CXCL1 Production in HT-29 Cells by Compounds
This assay was conducted to evaluate the ability of the compounds to inhibit human IL-17A protein-induced production of the chemokine growth-regulated oncogene alpha/C-X-C motif chemokine ligand 1 (GROα/CXCL1) in HT-29 cells.
Human colorectal adenocarcinoma epithelial HT-29 cells (Chengdu Zhongyuan Gongchuang Technology Co., Ltd.) were seeded into a 96-well plate at a density of 5×10^4 cells per well and were cultured overnight in an incubator at 37° C.
30 ng/mL of human IL-17A protein (R&D, #317-ILB) was mixed with gradient concentrations of the IL-17A small-molecule inhibitor, or with […] of a positive control IL-17A antibody (R&D, #AF-317-NA). These mixtures were incubated at 37° C. for 1 h and were then added to the plate. The mixtures were co-incubated with the HT-29 cells at 37° C. for 48 h. Thereafter, the level of GROα in the cell culture supernatant was determined using a GROα ELISA kit (Cisbio, #62HCXC1PEG).
The inhibitory activity of each compound was expressed as the half-maximal inhibitory concentration (IC50) for inhibition of GROα/CXCL1 production in HT-29 cells.

Compound | IC50 (Human IL-17A [1]) | IC50 (Human IL-17A [2])
Cc1[nH]nc2c1-c1cc(F)c(NC(=O)[C@@H](NC(=O)c3ccnn3C(C)C)C(C3CC3)C3CC3)cc1CN(CC(F)F)C(C)C2 (mixture of isomers) [compound 178] | ≤ 50 nM | ≤ 100 nM
Cc1[nH]nc2c1-c1cc(F)c(NC(=O)[C@@H](NC(=O)c3ccnn3C(C)C)[C@H]3CC[C@H](C)CC3)cc1COCC2 [compound 45] | ≤ 50 nM | 100 to 500 nM
CCn1nccc1C(=O)N[C@H](C(=O)Nc1cc2c(cc1F)-c1c(n[nH]c1C)CCOC2)C1CCCCC1 [compound 49] | ≤ 50 nM | 100 to 500 nM
CCn1nccc1C(=O)N[C@H](C(=O)Nc1cc2c(cn1)-c1c(n[nH]c1C)CCOC2)C(C1CC1)C1CC1 [compound 53] | ≤ 50 nM | 100 to 500 nM
Cc1[nH]nc2c1-c1cc(F)c(NC(=O)[C@@H](NC(=O)c3ccnn3CC3CC(F)(F)C3)C(C3CC3)C3CC3)cc1COCC2 [compound 64] | ≤ 50 nM | 100 to 500 nM
Cc1[nH]nc2c1-c1cc(F)c(NC(=O)[C@@H](NC(=O)c3ccnn3CC3(F)CC3)C(C3CC3)C3CC3)cc1COCC2 [compound 79] | 50 to 150 nM | 100 to 500 nM
Cc1[nH]nc2c1-c1cc(F)c(NC(=O)[C@@H](NC(=O)c3ccnn3CCCN3CCOCC3)C(C3CC3)C3CC3)cc1COCC2 [compound 92] | ≤ 50 nM | ≤ 100 nM
Cc1[nH]nc2c1-c1cc(F)c(NC(=O)[C@@H](NC(=O)c3ccnn3C(C)C)C(C3CC3)C3CC3)cc1CCCC2 [compound 130] | ≤ 50 nM | 100 to 500 nM
CCN1CCc2n[nH]c(C)c2-c2cc(F)c(NC(=O)[C@@H](NC(=O)c3ccnn3CC)C(C3CC3)C3CC3)cc2C1 [compound 157] | ≤ 50 nM | 100 to 500 nM
Cc1[nH]nc2c1-c1cc(F)c(NC(=O)[C@@H](NC(=O)c3conc3C(C)C)C(C3CC3)C3CC3)cc1CN(CC(F)F)C(=O)C2 [compound 171] | ≤ 50 nM | ≤ 100 nM
Cc1[nH]nc2c1-c1cc(F)c(NC(=O)[C@@H](NC(=O)c3ccnn3CCCF)C(C3CC3)C3CC3)cc1CN(CC(F)F)C(=O)C2 [compound 172] | ≤ 50 nM | ≤ 100 nM
Cc1[nH]nc2c1-c1cc(F)c(NC(=O)[C@@H](NC(=O)c3ccnn3C(C)C)C(C3CC3)C3CC3)cc1CN(C1CCC(F)(F)CC1)CC2 [compound 175] | ≤ 50 nM | ≤ 100 nM
Cc1[nH]nc2c1-c1cc(F)c(NC(=O)[C@@H](NC(=O)c3conc3C(C)C)C(C3CC3)C3CC3)cc1CN(CC(F)F)CC2 [compound 180] | ≤ 50 nM | ≤ 100 nM
Cc1[nH]nc2c1-c1cc(F)c(NC(=O)[C@@H](NC(=O)c3ccnn3CCCF)C(C3CC3)C3CC3)cc1CN(CC(F)F)CC2 [compound 181] | ≤ 50 nM | ≤ 100 nM
Cc1[nH]nc2c1-c1cnc(NC(=O)[C@@H](NC(=O)c3ccnn3C(C)C)C(C3CC3)C3CC3)cc1CN(C1CCC1)C(=O)C2 [compound 197] | ≤ 50 nM | ≤ 100 nM
Cc1[nH]nc2c1-c1cnc(NC(=O)[C@@H](NC(=O)c3ccnn3C3CC3)C(C3CC3)C3CC3)cc1CN(C1CC1)CC2 [compound 219] | ≤ 50 nM | ≤ 100 nM
CC(C)=C(F)C(=O)N[C@H](C(=O)Nc1cc2c(cc1F)-c1c(n[nH]c1C)CCOC2)C(C1CC1)C1CC1 [compound 232] | ≤ 50 nM | ≤ 100 nM
C=C(F)C(=O)N[C@H](C(=O)Nc1cc2c(cc1F)-c1c(n[nH]c1C)CCOC2)C(C1CC1)C1CC1 [compound 233] | ≤ 50 nM | ≤ 100 nM
CC(C)=C(F)C(=O)N[C@H](C(=O)Nc1cc2c(cn1)-c1c(n[nH]c1C)CCOC2)C(C1CC1)C1CC1 [compound 244] | ≤ 50 nM | ≤ 100 nM
C=C(F)C(=O)N[C@H](C(=O)Nc1cc2c(cn1)-c1c(n[nH]c1C)CCOC2)C(C1CC1)C1CC1 [compound 245] | ≤ 50 nM | ≤ 100 nM

The next lines start with the values.

IC50 (Human IL-17A [1]) | IC50 (Human IL-17A [2]) | Compound
50 to 150 nM | 100 to 500 nM | CSCC(C)n1nccc1C(=O)N[C@H](C(=O)Nc1cc2c(cc1F)-c1c(n[nH]c1C)CCOC2)C(C1CC1)C1CC1 (single isomer, unassigned) [compound 40a]
≤ 50 nM | 100 to 500 nM | CSCC(C)n1nccc1C(=O)N[C@H](C(=O)Nc1cc2c(cc1F)-c1c(n[nH]c1C)CCOC2)C(C1CC1)C1CC1 (single isomer, unassigned) [compound 40b]
50 to 150 nM | 100 to 500 nM | CCC1Cc2n[nH]c(C)c2-c2cc(F)c(NC(=O)[C@@H](NC(=O)c3ccnn3C(C)C)C(C3CC3)C3CC3)cc2CO1 (single isomer, unassigned) [compound 120a]
≤ 50 nM | 100 to 500 nM | CCC1Cc2n[nH]c(C)c2-c2cc(F)c(NC(=O)[C@@H](NC(=O)c3ccnn3C(C)C)C(C3CC3)C3CC3)cc2CO1 (single isomer, unassigned) [compound 120b]
≤ 50 nM | 100 to 500 nM | CCC(C)n1nccc1C(=O)N[C@H](C(=O)Nc1cc2c(cc1F)-c1c(n[nH]c1C)CCOC2)C(C1CC1)C1CC1 (single isomer, unassigned) [compound 123a]
≤ 50 nM | 100 to 500 nM | CCC(C)n1nccc1C(=O)N[C@H](C(=O)Nc1cc2c(cc1F)-c1c(n[nH]c1C)CCOC2)C(C1CC1)C1CC1 (single isomer, unassigned) [compound 123b]
≤ 50 nM | 100 to 500 nM | Cc1[nH]nc2c1-c1cnc(NC(=O)[C@@H](NC(=O)c3ccnn3C(C)C(F)F)C(C3CC3)C3CC3)cc1COCC2 (single isomer, unassigned) [compound 190a]
50 to 150 nM | 100 to 500 nM | Cc1[nH]nc2c1-c1cnc(NC(=O)[C@@H](NC(=O)c3ccnn3C(C)C(F)F)C(C3CC3)C3CC3)cc1COCC2 (single isomer, unassigned) [compound 190b]
